From patent publication US8959984B2, “Proteome-wide quantification of small molecule binding to cellular target proteins” (priority 2007, dated 2015)

Experiments:
Experiment in all cases: binding to VI16742 beads (HeLa lysate, SILAC MS)
[1] = target: T1, IKKb (IKBKB, IPI00024709) (Homo sapiens, UniProt O14920)
T1 construct: endogenous in cells; host or cells: HeLa S3
T1 sequence (O14920 1-756): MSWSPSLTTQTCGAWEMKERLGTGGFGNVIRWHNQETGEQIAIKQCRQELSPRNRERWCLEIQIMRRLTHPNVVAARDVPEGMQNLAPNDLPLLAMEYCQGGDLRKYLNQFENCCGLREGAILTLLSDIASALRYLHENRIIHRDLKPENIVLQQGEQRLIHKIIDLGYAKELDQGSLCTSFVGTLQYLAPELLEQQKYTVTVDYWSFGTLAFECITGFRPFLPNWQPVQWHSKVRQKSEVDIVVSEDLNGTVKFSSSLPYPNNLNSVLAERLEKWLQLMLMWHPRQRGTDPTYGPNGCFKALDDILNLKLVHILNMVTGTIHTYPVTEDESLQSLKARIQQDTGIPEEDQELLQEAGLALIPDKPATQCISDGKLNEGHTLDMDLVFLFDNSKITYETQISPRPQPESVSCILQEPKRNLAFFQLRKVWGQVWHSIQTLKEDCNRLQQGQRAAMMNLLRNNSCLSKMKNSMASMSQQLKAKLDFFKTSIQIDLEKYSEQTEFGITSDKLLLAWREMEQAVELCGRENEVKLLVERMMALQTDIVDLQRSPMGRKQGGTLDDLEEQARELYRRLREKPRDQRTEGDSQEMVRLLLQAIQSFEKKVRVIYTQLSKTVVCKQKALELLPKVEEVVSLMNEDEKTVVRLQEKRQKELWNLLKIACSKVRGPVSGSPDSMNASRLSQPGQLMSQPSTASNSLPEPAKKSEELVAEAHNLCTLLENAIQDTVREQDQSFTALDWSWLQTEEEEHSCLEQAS
Excerpt: (§1) In an alternative implementation of the chemical proteomic approach according to the invention, the broadly-selective pyrido[2,3-d]pyrimidine-based kinase inhibitor VI16742 has been used for affinity capture (FIG. 10a). […] As shown by gene ontology analysis, the corresponding molecular functions were highly over-represented in proteins specifically retained by the inhibitor resin (FIG. 10b).

[2] = target: T2, TAO3 (TAOK3, IPI00410485) (Homo sapiens, UniProt Q9H2K8)
T2 construct: endogenous in cells; host or cells: HeLa S3
T2 sequence (Q9H2K8 1-898): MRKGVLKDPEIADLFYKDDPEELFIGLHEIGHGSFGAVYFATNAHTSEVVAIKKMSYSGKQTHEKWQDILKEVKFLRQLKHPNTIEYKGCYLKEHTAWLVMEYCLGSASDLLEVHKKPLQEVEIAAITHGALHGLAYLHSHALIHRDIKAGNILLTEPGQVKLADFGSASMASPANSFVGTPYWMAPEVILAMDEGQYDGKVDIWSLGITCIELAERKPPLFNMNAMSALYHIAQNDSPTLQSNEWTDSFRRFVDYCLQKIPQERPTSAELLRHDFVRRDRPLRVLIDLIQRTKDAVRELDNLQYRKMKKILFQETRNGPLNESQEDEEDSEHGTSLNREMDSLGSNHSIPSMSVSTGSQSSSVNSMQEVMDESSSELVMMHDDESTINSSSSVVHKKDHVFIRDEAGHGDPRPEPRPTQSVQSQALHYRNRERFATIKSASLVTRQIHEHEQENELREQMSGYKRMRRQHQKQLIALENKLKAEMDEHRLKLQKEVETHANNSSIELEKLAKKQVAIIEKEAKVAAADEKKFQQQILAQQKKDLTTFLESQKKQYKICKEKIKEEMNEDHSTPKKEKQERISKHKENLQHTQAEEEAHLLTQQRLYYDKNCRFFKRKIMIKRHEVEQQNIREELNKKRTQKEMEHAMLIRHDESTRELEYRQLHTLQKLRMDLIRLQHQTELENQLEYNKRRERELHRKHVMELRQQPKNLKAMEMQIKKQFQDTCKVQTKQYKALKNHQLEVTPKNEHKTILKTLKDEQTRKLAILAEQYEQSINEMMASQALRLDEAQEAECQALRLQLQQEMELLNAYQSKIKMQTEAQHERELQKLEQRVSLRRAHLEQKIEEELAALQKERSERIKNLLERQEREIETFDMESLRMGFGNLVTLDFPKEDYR
Excerpt: as §1

RPSA (IPI00413108) = target: T3, RPSA (IPI00413108) (Homo sapiens, UniProt P08865)
T3 construct: endogenous in cells; host or cells: HeLa S3
Excerpt: as §1

MET (IPI00294528) = target: T4, MET (IPI00294528) (Homo sapiens, UniProt P08581)
T4 construct: endogenous in cells; host or cells: HeLa S3 cell lysate
T4 sequence (P08581 25-1390): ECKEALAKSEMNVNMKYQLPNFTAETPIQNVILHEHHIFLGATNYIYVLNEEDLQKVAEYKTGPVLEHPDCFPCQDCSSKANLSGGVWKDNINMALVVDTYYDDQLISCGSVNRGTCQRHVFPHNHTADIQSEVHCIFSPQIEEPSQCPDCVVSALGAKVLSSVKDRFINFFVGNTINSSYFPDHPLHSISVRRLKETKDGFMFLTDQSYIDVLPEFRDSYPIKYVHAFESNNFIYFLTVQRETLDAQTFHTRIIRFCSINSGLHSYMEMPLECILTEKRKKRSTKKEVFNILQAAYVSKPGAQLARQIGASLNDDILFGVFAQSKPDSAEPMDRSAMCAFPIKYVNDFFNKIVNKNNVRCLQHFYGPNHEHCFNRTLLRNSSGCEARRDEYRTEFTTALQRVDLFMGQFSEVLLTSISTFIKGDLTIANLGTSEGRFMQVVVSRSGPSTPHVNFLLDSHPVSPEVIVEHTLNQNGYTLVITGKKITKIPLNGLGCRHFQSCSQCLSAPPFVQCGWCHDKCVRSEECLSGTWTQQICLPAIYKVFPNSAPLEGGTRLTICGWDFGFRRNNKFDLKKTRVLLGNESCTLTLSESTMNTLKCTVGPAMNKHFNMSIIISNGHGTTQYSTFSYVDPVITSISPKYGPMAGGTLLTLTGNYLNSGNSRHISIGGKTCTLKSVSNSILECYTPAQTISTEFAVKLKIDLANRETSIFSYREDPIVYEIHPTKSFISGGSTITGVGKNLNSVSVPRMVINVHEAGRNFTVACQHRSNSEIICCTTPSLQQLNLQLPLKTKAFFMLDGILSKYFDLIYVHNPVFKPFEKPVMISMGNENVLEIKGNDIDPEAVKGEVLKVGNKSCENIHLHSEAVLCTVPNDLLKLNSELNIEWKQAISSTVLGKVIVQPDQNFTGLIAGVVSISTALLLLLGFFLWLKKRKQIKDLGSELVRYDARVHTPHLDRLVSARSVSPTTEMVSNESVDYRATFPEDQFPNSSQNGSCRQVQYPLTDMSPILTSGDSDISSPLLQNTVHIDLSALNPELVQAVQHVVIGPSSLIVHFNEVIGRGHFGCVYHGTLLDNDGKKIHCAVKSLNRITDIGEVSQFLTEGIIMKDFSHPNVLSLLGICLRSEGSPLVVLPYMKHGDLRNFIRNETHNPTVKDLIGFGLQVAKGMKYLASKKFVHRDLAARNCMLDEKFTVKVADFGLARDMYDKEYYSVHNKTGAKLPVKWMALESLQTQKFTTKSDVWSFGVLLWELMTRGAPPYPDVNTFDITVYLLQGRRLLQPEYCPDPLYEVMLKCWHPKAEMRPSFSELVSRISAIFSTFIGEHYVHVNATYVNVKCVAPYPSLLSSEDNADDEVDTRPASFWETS
Excerpt: as §1

APRT (IPI00218693) = target: T5, APRT (IPI00218693) (Homo sapiens, UniProt P07741)
T5 construct: endogenous in cells; host or cells: HeLa S3
T5 sequence (P07741 1-180): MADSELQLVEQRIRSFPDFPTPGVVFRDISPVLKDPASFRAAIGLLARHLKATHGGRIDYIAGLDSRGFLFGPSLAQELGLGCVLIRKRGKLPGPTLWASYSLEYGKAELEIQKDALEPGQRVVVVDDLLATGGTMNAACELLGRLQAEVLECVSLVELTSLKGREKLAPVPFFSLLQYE
Excerpt: as §1

[3] = target: T6, PKACb (PRKACB, IPI00376119) (Homo sapiens, UniProt P22694)
T6 construct: endogenous in cells; host or cells: HeLa S3
Excerpt: as §1

XTP3TPA (IPI00012197) = target: T7, XTP3TPA (IPI00012197) (Homo sapiens, UniProt Q9H773)
T7 construct: endogenous in cells; host or cells: HeLa S3
T7 sequence (Q9H773 1-170): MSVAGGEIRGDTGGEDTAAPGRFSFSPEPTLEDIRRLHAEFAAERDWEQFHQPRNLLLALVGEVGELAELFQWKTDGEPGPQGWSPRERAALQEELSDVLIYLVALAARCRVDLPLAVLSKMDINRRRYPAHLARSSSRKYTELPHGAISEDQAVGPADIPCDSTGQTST
Excerpt: as §1

[4] = control beads vs first incubation

CC(C)n1c(=O)ccc2cnc(Nc3ccc(OCCN)cc3)nc21 [V16742]
rAVERAGE (CTRL/1 INC) [1, 4]: 0.06 | Ki ([1]; immobilized VI16742): 201 µM | rAVERAGE (2 INC/1 INC) ([1]; second vs first incubation): 0.79 | r (3 MG/1 MG LYSATE) ([2]; 3 mg vs 1 mg lysate): 2.95 | rAVERAGE (CTRL/1 INC) [2, 4]: 0.09 | Ki ([2]; immobilized VI16742): 116 µM | rAVERAGE (2 INC/1 INC) ([2]; second vs first incubation): 0.69 | r (3 MG/1 MG LYSATE) (RPSA (IPI00413108); 3 mg vs 1 mg lysate): 3.92 | r (5 h/2.5 h INC. TIME) (RPSA (IPI00413108); 5 h vs 2.5 h incubation time): 2.26 | rAVERAGE (CTRL/1 INC) (RPSA (IPI00413108); [4]): 0.11 | Ki (RPSA (IPI00413108); immobilized VI16742): 185 µM | rAVERAGE (2 INC/1 INC) (RPSA (IPI00413108); second vs first incubation): 0.78 | rAVERAGE (CTRL/1 INC) (MET (IPI00294528); [4]): 0.08 | Ki (MET (IPI00294528); immobilized VI16742): 94.8 µM | rAVERAGE (2 INC/1 INC) (MET (IPI00294528); second vs first incubation): 0.65 | r (3 MG/1 MG LYSATE) (APRT (IPI00218693); 3 mg vs 1 mg lysate): 1.04 | r (5 h/2.5 h INC. TIME) (APRT (IPI00218693); 5 h vs 2.5 h incubation time): 1.40 | rAVERAGE (CTRL/1 INC) (APRT (IPI00218693); [4]): 0.05 | Ki (APRT (IPI00218693); immobilized VI16742): 223 µM | rAVERAGE (2 INC/1 INC) (APRT (IPI00218693); second vs first incubation): 0.81 | rAVERAGE (CTRL/1 INC) [3, 4]: 0.01 | Ki ([3]; immobilized VI16742): 390 µM | rAVERAGE (2 INC/1 INC) ([3]; second vs first incubation): 0.88 | r (3 MG/1 MG LYSATE) (XTP3TPA (IPI00012197); 3 mg vs 1 mg lysate): 3.39 | r (5 h/2.5 h INC. TIME) (XTP3TPA (IPI00012197); 5 h vs 2.5 h incubation time): 1.04 | rAVERAGE (CTRL/1 INC) (XTP3TPA (IPI00012197); [4]): 0.08 | Ki (XTP3TPA (IPI00012197); immobilized VI16742): 159 µM | rAVERAGE (2 INC/1 INC) (XTP3TPA (IPI00012197); second vs first incubation): 0.75
